Experimental data reported in US20250090562A1, “METHODS, COMPOSITIONS AND USES RELATED TO THE TREATMENT AND PREVENTION OF LEIGH’S SYNDROME” (Stealth BioTherapeutics Inc., priority 2023, published 2025).

Key:
[1] = system: ROS production generated by reverse electron transfer (RET) from Complex II to Complex I; experiment: Reverse electron transfer assay (RET assay) in isolated brain mitochondria; format: biochemical, mouse
Protocol: For mitochondria isolation, brains were dissected at a local vivarium (Explora, MA, USA) from C57BL/6 mice that were supplied by The Jackson Laboratory (Maine, USA). Brains were collected on ice in cold mitochondria isolation buffer (225 mM mannitol, 75 mM sucrose, 5 mM HEPES, 1 mM EGTA, pH 7.4). In a glass petri dish, brains were mixed with a few drops of buffer and cut into small pieces resembling a mash using scissors. Mitochondrial isolation buffer was added at 1:10-1:20 (w/v) and tissue mash was transferred to a glass Dounce tissue homogenizer and further homogenized with 10-15 strokes. Mash was centrifuged at 1,000×g for 10 min to pellet and remove cellular debris, etc. Supernatant was transferred into 2.0 mL tubes and centrifuged at 10,000×g. […]
All high-resolution respirometry experiments were conducted using the Oroboros O2k-Fluorespirometer (Oroboros, Innsbruck, Austria). […] Prior to each experiment requiring the fluorescence module, the AmpR calibration protocol from DatLab 7.4 was used to calibrate the fluorescence signal. […]
Reverse electron transfer (RET) was measured using HRR with the Oroboros O2k and DatLab 7.4. […]
Statistical analysis was performed using GraphPad Prism 9. […] RET Assay data were analyzed by 2-way ANOVA using a p-value of 0.05. […]

[2] = system: Leigh fibroblasts (GM03672); experiment: Mitochondrial membrane potential (TMRM flow cytometry) in RSL3-treated Leigh fibroblasts; format: cell-based, human; settings: 1 μM RSL3 with 1 μM compound, 4 h
Protocol: Leigh fibroblasts (GM03672) were seeded in a 24-well, tissue culture-treated plate in complete MEM (MEM+15% FBS+1% penicillin/streptomycin) at a density of 1×10^5 cells per 500 μL and incubated overnight at 37° C. at 5% CO2. Cells were treated for 4 hours at 37° C. with either 1 μM RSL3, 1 μM RSL3 with 1 μM Compound 3 or media for untreated cells. Following the incubation, supernatant was removed and cells were treated with 0.25% trypsin for 5 min at 37° C. Trypsin was neutralized with an equal part MEM. Cells were dislodged with gentle pipetting and pelleted at 300×g for 5 minutes. Pellets were resuspended in 500 μL Fluobrite DMEM and cells were transferred to a 96-well, v-bottom plate. Cells were stained with 20 nM MitoTracker Green and 100 nM tetramethylrhodamine methyl ester (TMRM) Samples were incubated for 25 minutes at 37° C. Each well was mixed immediately prior to analysis to resuspend settled cells. Fluorescence intensity was measured on the BD Accuri C6 Plus Flow Cytometer. A minimum of 10,000 events per sample was collected. Data analysis was performed using FloJo vs. 10. Gating was performed by establishing an initial forward scatter vs. side scatter gate. MitoTracker Green positive, TMRM positive cells were identified through subsequent gating. Median fluorescence intensity (MFI) of TMRM fluorescence was determined. Using GraphPad Prism 10, statistical significance between groups was determined by One-way ANOVA. A p-value of less than 0.05 was considered significant. Results are presented graphically in FIG. 20.

Compound	H2O2 production ([1]; 2 μM compound prior to succinate (10 mM))	mitochondrial membrane potential (TMRM MFI), protection [2]	H2O2 production ([1]; either 1 or 2 μM compound prior to succinate (10 mM))
CC1=C(C)C(=O)C(CC[C@@](C)(O)COCCC[Si](C)(C)C)=C(C)C1=O [Compound 3]	statistically significant reduction	protective of the Leigh fibroblasts from the loss of mitochondrial membrane potential	–
CC1=C(C)C(=O)C(CC[C@](C)(O)CCCCCCCCC(F)(F)F)=C(C)C1=O [Compound 4]	–	protective of the Leigh fibroblasts from the loss of mitochondrial membrane potential	statistically significant reduction
